Experimental data: patent publication US20230085307A1, “PYRIDAZINONE COMPOUND AND HERBICIDE” (NISSAN CHEMICAL CORPORATION, priority 2019, published 2023)

Experiments:
oval-leafed pondweed = assay: Test Example 1: herbicidal activity, application before weed generation under submerged conditions (Table 16, symbol C); assay type: in vivo, oval-leafed pondweed (Monochoria vaginalis); settings: 320 g/ha applied herbicide
Method in brief: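 Submerged Wagner pots (alluvial soil, 4 cm water) sown with weed seeds and planted with 2.5-leaf rice seedlings; emulsifiable concentrate diluted in water applied to water surface on sowing day. Held in greenhouse at 25-30 °C; injury scored 0-5 by herbicidal rate after three weeks.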

Japanese bulrush = assay: Test Example 2: herbicidal activity, application during weed generation under submerged conditions (Table 17, symbol B); assay type: in vivo, Japanese bulrush (Schoenoplectus juncoides); settings: AAH 320 g/ha; application during weed generation, submerged conditions
Method in brief: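 Effect on each weed is rated three weeks post-treatment, using the same scoring criteria as the preceding test. Plants grow from mixed-sown seed in flooded alluvial soil (4 cm water) at 25° C. to 30° C., and are treated at one to two leaves with diluted emulsion dropped onto the water.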

southern crabgrass = assay: Test Example 4: herbicidal effect by soil treatment (Table 19, symbol F); assay type: in vivo, southern crabgrass (Digitaria ciliaris); settings: amount of applied herbicide 320 g/ha
Method in brief: (§1)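 Step 1: sow seeds in sterilized diluvial soil, cover ~1.5 cm. Step 2: spray diluted emulsion onto soil surface at predetermined rate. Step 3: greenhouse, 25–30° C, three weeks. Step 4: grade effect on each plant by earlier criteria.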

green foxtail = assay: Test Example 4: herbicidal effect by soil treatment (Table 19, symbol G); assay type: in vivo, green foxtail (Setaria viridis); settings: amount of applied herbicide 320 g/ha
Method in brief: as §1

barnyard grass = assay: Test Example 4: herbicidal effect by soil treatment (Table 19, symbol H); assay type: in vivo, barnyard grass (Echinochloa crus-galli); settings: amount of applied herbicide 320 g/ha
Method in brief: as §1

wild oat = assay: Test Example 4: herbicidal effect by soil treatment (Table 19, symbol I); assay type: in vivo, wild oat (Avena fatua); settings: amount of applied herbicide 320 g/ha
Method in brief: as §1

blackgrass = assay: Test Example 4: herbicidal effect by soil treatment (Table 19, symbol J); assay type: in vivo, blackgrass (Alopecurus myosuroides); settings: amount of applied herbicide 320 g/ha
Method in brief: as §1

velvetleaf [1] = assay: Test Example 4: herbicidal effect by soil treatment (Table 19, symbol M); assay type: in vivo, velvetleaf (Abutilon theophrasti); settings: amount of applied herbicide 320 g/ha
Method in brief: as §1

lambsquarters [2] = assay: Test Example 4: herbicidal effect by soil treatment (Table 19, symbol O); assay type: in vivo, lambsquarters (Chenopodium album); settings: amount of applied herbicide 320 g/ha
Method in brief: as §1

chickweed [3] = assay: Test Example 4: herbicidal effect by soil treatment (Table 19, symbol P); assay type: in vivo, common chickweed (Stellaria media); settings: amount of applied herbicide 320 g/ha
Method in brief: as §1

persian speedwell = assay: Test Example 4: herbicidal effect by soil treatment (Table 19, symbol R); assay type: in vivo, Persian speedwell (Veronica persica); settings: amount of applied herbicide 320 g/ha
Method in brief: as §1

Italian ryegrass = assay: Test Example 5: herbicidal effect by foliage application, plastic box (Table 20, symbol K); assay type: in vivo, Italian ryegrass (Lolium multiflorum); settings: foliage application, 320 g/ha, evaluated three weeks after application
Method in brief: (§2)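 Foliar spray test: emulsion formulation diluted in water to a set application rate, sprayed onto 14-day-old plants raised in diluvial soil at 25° C to 30° C under glass. Both herbicidal effect and crop effect rated visually three weeks later.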

windgrass = assay: Test Example 5: herbicidal effect by foliage application, plastic box (Table 20, symbol L); assay type: in vivo, windgrass (Apera spica-venti); settings: foliage application, 320 g/ha, evaluated three weeks after application
Method in brief: as §2

velvetleaf [4] = assay: Test Example 5: herbicidal effect by foliage application, plastic box (Table 20, symbol M); assay type: in vivo, velvetleaf (Abutilon theophrasti); settings: foliage application, 320 g/ha, evaluated three weeks after application
Method in brief: as §2

redroot pigweed = assay: Test Example 5: herbicidal effect by foliage application, plastic box (Table 20, symbol N); assay type: in vivo, redroot pigweed (Amaranthus retroflexus); settings: foliage application, 320 g/ha, evaluated three weeks after application
Method in brief: as §2

lambsquarters [5] = assay: Test Example 5: herbicidal effect by foliage application, plastic box (Table 20, symbol O); assay type: in vivo, lambsquarters (Chenopodium album); settings: foliage application, 320 g/ha, evaluated three weeks after application
Method in brief: as §2

chickweed [6] = assay: Test Example 5: herbicidal effect by foliage application, plastic box (Table 20, symbol P); assay type: in vivo, common chickweed (Stellaria media); settings: foliage application, 320 g/ha, evaluated three weeks after application
Method in brief: as §2

Row | Structure (SMILES) | Herbicidal effect on C: oval-leafed pondweed (grade 0-5) (oval-leafed pondweed) | herbicidal effect rating, B: Japanese bulrush (Japanese bulrush) | F: southern crabgrass, herbicidal effect rating (southern crabgrass) | G: green foxtail, herbicidal effect rating (green foxtail) | H: barnyard grass, herbicidal effect rating (barnyard grass) | I: wild oat, herbicidal effect rating (wild oat) | J: blackgrass, herbicidal effect rating (blackgrass) | M: velvetleaf, herbicidal effect rating (velvetleaf [1]) | O: lambsquarters, herbicidal effect rating (lambsquarters [2]) | P: chickweed, herbicidal effect rating (chickweed [3]) | R: persian speedwell, herbicidal effect rating (persian speedwell) | herbicidal effect on K: Italian ryegrass (criteria 0-5) (Italian ryegrass) | herbicidal effect on L: windgrass (criteria 0-5) (windgrass) | herbicidal effect on M: velvetleaf (criteria 0-5) (velvetleaf [4]) | herbicidal effect on N: redroot pigweed (criteria 0-5) (redroot pigweed) | herbicidal effect on O: lambsquarters (criteria 0-5) (lambsquarters [5]) | herbicidal effect on P: chickweed (criteria 0-5) (chickweed [6])
1 | CCCC(=O)Oc1c(C)nn(C)c(=O)c1-c1c(-c2ccccc2)sc2ccc(F)cc12 [2-198] | 3 (Herbicidal rate of 40% or more and less than 70%) | 3 (Herbicidal rate of 40% or more and less than 70%) | 5 (Herbicidal rate of 90% or more (almost completely withered)) | 5 (Herbicidal rate of 90% or more (almost completely withered)) | 4 (Herbicidal rate of 70% or more and less than 90%) | 4 (Herbicidal rate of 70% or more and less than 90%) | 4 (Herbicidal rate of 70% or more and less than 90%) | 3 (Herbicidal rate of 40% or more and less than 70%) | 4 (Herbicidal rate of 70% or more and less than 90%) | 4 (Herbicidal rate of 70% or more and less than 90%) | 4 (Herbicidal rate of 70% or more and less than 90%) | 5 (Herbicidal rate of 90% or more (almost completely withered)) | 4 (Herbicidal rate of 70% or more and less than 90%) | 5 (Herbicidal rate of 90% or more (almost completely withered)) | 5 (Herbicidal rate of 90% or more (almost completely withered)) | 5 (Herbicidal rate of 90% or more (almost completely withered)) | 5 (Herbicidal rate of 90% or more (almost completely withered))
2 | Cc1nn(C)c(=O)c(-c2c(-c3ccccc3F)sc3ccc(F)cc23)c1O [2-199] | 2 (Herbicidal rate of 20% or more and less than 40%) | 2 (Herbicidal rate of 20% or more and less than 40%) | 2 (Herbicidal rate of 20% or more and less than 40%) | 4 (Herbicidal rate of 70% or more and less than 90%) | 4 (Herbicidal rate of 70% or more and less than 90%) | 0 (Herbicidal rate of 5% or less (almost no effect)) | 0 (Herbicidal rate of 5% or less (almost no effect)) | 1 (Herbicidal rate of 5% or more and less than 20%) | 4 (Herbicidal rate of 70% or more and less than 90%) | 2 (Herbicidal rate of 20% or more and less than 40%) | 0 (Herbicidal rate of 5% or less (almost no effect)) | 4 (Herbicidal rate of 70% or more and less than 90%) | 0 (Herbicidal rate of 5% or less (almost no effect)) | 5 (Herbicidal rate of 90% or more (almost completely withered)) | 5 (Herbicidal rate of 90% or more (almost completely withered)) | 5 (Herbicidal rate of 90% or more (almost completely withered)) | 5 (Herbicidal rate of 90% or more (almost completely withered))
